Measured values published in publication PMC3039689, “Identification of Small Molecule Lead Compounds for Visceral Leishmaniasis Using a Novel Ex Vivo Splenic Explant Model System” (PLoS Neglected Tropical Diseases, 2011).
Where two headings read alike, the source gives them in different places.

Tests used:
splenocytes [1] = experiment: Flow cytometry of propidium iodide stained splenocytes cultured with test compound; conditions: 48 hr culture period, data not shown
[2] = Cell toxicity (CC50) in the HepG2 cell line, CellTiter-Glo; assay type: cell-based, human; conditions: human
Protocol: After 24 hours of culture at 37°C the number of viable cells was determined by quantification of the ATP present in the cell using the CellTiter-Glo luminescent Cell Viability Assay (Promega).

[3] = test system: luciferase-transfected Leishmania donovani; experiment: Anti-leishmanial efficacy (EC50) in the ex vivo splenic explant model; assay type: cell-based; conditions: Leishmania donovani
[4] = test system: LUC-transfected L. donovani; experiment: Anti-leishmanial efficacy (EC50) in in vitro infected peritoneal macrophages; assay type: cell-based, Leishmania donovani; conditions: Leishmania donovani, Peritoneal macrophage; hamster peritoneal macrophages infected in vitro, 48 h, luminometry; purchased compounds; read-out: Peritoneal Macrophages EC50 (mean±SE)
Protocol: Macrophages from uninfected hamsters were obtained by peritoneal lavage with DMEM (Gibco) and Heparin (2 units/ml; Elkins-Sinn, Cherry Hill NJ). The cells were washed twice by centrifugation and re-suspended in culture medium composed of DMEM, 5% FBS, 1 mM sodium pyruvate (Gibco), 1X MEM amino acids solution (Sigma), 0.02% v/v/EDTA and 10 mM HEPES buffer (Cellgro). The peritoneal macrophages were adjusted to 5×10^5 cells/ml and allowed to adhere overnight at 37°C and 5% CO2 in flat bottom 96-well plates. Adherent macrophages were infected at 1∶5 ratio (cells:parasites) with stationary phase LUC-transfected L. donovani promastigotes and cultured at 37°C, 5% CO2, for 2 h. The extracellular parasites were then removed by washing with warm Dulbeco's PBS (Gibco). Infected macrophages were exposed to 2-fold serial dilutions of test compounds as described above for the ex vivo culture system. The infected macrophages were incubated for 48 hr in 5% CO2 atmosphere at 37°C. The number of surviving parasites was determined by luminometry and the effective concentration (EC50) calculated by linear regression (GraphPad Prism 5.0) as described above for the ex vivo system. The mean and standard error of the EC50 from 3 different experiments were considered as the final EC50. […] Tilorone was obtained from Hangzhou Trylead Chemical Tech (China). All compounds were dissolved in sterile dimethyl sulfoxide (analytical grade, cell culture tested; Sigma) and stored frozen at −20°C until used.

Leishmania donovani = experiment: Discrimination between amphotericin B treated and untreated splenic explant cultures at serial dilutions of cells; assay type: cell-based; conditions: AMB 0.126 µg/mL, 48 h; for Parasite counts, Treated (AMB): mean ± SD; for Reduction in parasite burden: with reference to controls
splenocytes [5] = test system: splenocytes
[6] = 48 h, 48 h of culture, luminometry, purchased compounds dissolved in DMSO, read-out: Ex vivo model EC50 (mean±SE)

CCN(CC)CCOc1ccc2c(c1)C(=O)c1cc(OCCN(CC)CC)ccc1-2 [Tilorone]
Splenocyte viability (splenocytes [1]): no loss of splenocyte viability
CC50 at 24 h ([2]; HepG2 cells, HepG2 cell line, 24 h, ATP luminescence, compound from screened library, read-out: HepG2 CC50 Mean): 46.8 µM
EC50 [3, 6]: 0.84 ± 0.47 µM
EC50 ([3]; 48 h, ex vivo splenic explant, 48 h, luminometry, at least two experiments, compound from screened library, read-out: Ex vivo model EC50 Mean): 7.7 µM
EC50 [4]: 1.48 ± 0.35 µM

C[C@@H]1[C@H](O)[C@@H](C)/C=C/C=C/C=C/C=C/C=C/C=C/C=C/[C@H](O[C@@H]2O[C@H](C)[C@@H](O)[C@H](N)[C@@H]2O)C[C@@H]2O[C@](O)(C[C@@H](O)C[C@@H](O)[C@H](O)CC[C@@H](O)C[C@@H](O)CC(=O)O[C@H]1C)C[C@H](O)[C@H]2C(=O)O [Amphotericin B]
CC50 at 24 h [2]: 104 µM
Parasite counts, Treated (AMB) (Leishmania donovani; 3,125 cells per well): 0.1±0.1 photons/sec
Reduction in parasite burden (Leishmania donovani; 3,125 cells per well): 83.5%
Parasite counts, Treated (AMB) (Leishmania donovani; 6,250 cells per well): 0.2±0.0 photons/sec
Reduction in parasite burden (Leishmania donovani; 6,250 cells per well): 86.3%
Parasite counts, Treated (AMB) (Leishmania donovani; 12,500 cells per well): 0.4±0.3 photons/sec
Reduction in parasite burden (Leishmania donovani; 12,500 cells per well): 86.2%
Parasite counts, Treated (AMB) (Leishmania donovani; 25,000 cells per well): 0.7±0.0 photons/sec
Reduction in parasite burden (Leishmania donovani; 25,000 cells per well): 86.4%
Parasite counts, Treated (AMB) (Leishmania donovani; 50,000 cells per well): 2.5±0.5 photons/sec
Reduction in parasite burden (Leishmania donovani; 50,000 cells per well): 82.3%
Parasite counts, Treated (AMB) (Leishmania donovani; 100,000 cells per well): 8.5±0.2 photons/sec
Reduction in parasite burden (Leishmania donovani; 100,000 cells per well): 83.3%
Parasite counts, Treated (AMB) (Leishmania donovani; 200,000 cells per well): 34.8±3.7 photons/sec
Reduction in parasite burden (Leishmania donovani; 200,000 cells per well): 76.0%
EC50 [3, 6]: 0.09 ± 0.03 µM
EC50 ([3]; ex vivo model, amphotericin B present in the library (in DMSO vehicle), read-out: EC50): 10.7 ± 0.9 µM
Splenocyte viability (splenocytes [5]): no loss of splenocyte viability
EC50 [4]: 0.11 ± 0.01 µM
